Experimental findings from patent US9650339B2, “Inhibitors of histone demethylases” (Gilead Sciences, Inc., priority 2013, dated 2017) are described below.

The test system of assay [1] is H3K4me3 mark. The assay can be described thus: Histone lysine demethylase immunofluorescence assay, non-transfected U2OS cells. The note with it: Homo sapiens, staining of the H3K4me3 mark, 20 hours incubation with compound. The class given is cell-based. An outline of the steps: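 Non-transfected U2OS cells incubated with compounds 20 h in DMEM/5% FBS. Fixed cells immunostained for H3K4me3 with Hoechst counterstain and imaged by high-throughput microscopy. IC50 based on average cellular H3K4me3 staining.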

The target in assay [2] is KDM6A (UTX) (Homo sapiens, UniProt O15550). The assay can be described thus: Histone lysine demethylase AlphaLISA assay, KDM6A. The format is biochemical. Conditions: read-out: KDM6A HDME Inhibition IC50. The procedure, abridged: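 Each enzyme was pre-incubated 10 min in buffer, then 10 min with compound in 3% DMSO solution. The reaction started with biotinylated histone H3 peptide substrate plus 25 μM L-ascorbate and 10 μM α-KG at room temperature. Detection used AlphaLISA acceptor beads, then streptavidin donor beads, in the dark.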
Sequence of KDM6A (UTX) (O15550 919-1401): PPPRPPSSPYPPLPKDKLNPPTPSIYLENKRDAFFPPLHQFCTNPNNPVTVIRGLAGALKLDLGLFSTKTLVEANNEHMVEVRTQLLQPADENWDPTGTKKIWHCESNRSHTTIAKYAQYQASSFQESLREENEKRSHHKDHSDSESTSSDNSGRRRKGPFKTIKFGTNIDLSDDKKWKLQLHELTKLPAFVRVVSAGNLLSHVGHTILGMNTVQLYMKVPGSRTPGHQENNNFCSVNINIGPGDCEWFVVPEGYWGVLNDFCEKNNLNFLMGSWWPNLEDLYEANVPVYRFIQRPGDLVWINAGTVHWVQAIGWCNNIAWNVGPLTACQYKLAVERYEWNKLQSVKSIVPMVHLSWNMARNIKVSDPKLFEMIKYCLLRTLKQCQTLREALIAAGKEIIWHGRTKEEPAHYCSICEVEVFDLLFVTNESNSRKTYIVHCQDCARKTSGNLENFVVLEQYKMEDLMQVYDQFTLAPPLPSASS
(Bead proximity is the source of the signal in Alpha formats.)

Assay [3] deals with T1, KDM4B (JMJD2B) (Homo sapiens, UniProt O94953).
T1 construct: 2-500; purchased BPS; host or cells: Bac (baculovirus system)
T1 sequence (O94953 2-500): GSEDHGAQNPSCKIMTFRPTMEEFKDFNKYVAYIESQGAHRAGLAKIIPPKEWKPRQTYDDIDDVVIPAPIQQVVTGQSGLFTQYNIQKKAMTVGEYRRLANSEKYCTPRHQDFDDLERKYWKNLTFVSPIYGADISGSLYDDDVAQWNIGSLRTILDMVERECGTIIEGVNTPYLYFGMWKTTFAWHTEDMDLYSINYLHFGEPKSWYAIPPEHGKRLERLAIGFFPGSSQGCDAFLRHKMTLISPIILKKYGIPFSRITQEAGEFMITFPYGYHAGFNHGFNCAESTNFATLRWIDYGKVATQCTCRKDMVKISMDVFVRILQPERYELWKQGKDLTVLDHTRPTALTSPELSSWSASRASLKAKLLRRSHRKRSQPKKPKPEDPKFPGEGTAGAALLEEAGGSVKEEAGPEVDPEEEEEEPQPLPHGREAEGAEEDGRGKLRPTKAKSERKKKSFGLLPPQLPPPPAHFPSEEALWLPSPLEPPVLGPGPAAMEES
The assay can be described thus: Histone lysine demethylase AlphaLISA assay, KDM4B. The class given is biochemical. The note with it: read-out: KDM4B HDME Inhibition IC50. The protocol:
Assays are performed analogously to the protocol described by PerkinElmer (Roy et al. PerkinElmer Technical Note: AlphaLISA #12, April 2011)
Enzymes are dissolved in enzyme buffer and incubated for 10 min before being added to 3% DMSO solutions of compounds in enzyme buffer. Incubated for another 10 minutes, before substrate solution is added and the reaction mixture is incubated at room temperature. 10 μL acceptor beads, suspended in Epigenetic Buffer (Perkin Elmer AL008) from stock, are added and the suspension is incubated in the dark at room temperature, before a suspension of streptavidin donor beads (Perkin Elmer 6760002) in Epigenetic Buffer is added. After incubation at room temperature in the dark the plates are read.
BK9M3: Biotin-ARTKQTAR(KMe3)STGGKAPRKQ-NH2 (Caslo, Denmark) […]
Substrate Solution: Substrate, 25 μM L-Asc, and 10 μM α-KG in Buffer A.

For assay [4], the system named is MCF7 cells. The assay is described as follows: Cell proliferation assay MCF7. The format is cell-based. The note with it: MCF7 human breast cancer cells; 120 hours; ATPlite 1 Step. An outline of the steps: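 After 120 h of compound exposure (duplicates, DMSO at most 0.5%) in DMEM GlutaMAX with 10% FBS, ATPlite 1 Step luminescence measured cellular ATP. Compound was added 24 h after seeding, at a density chosen for ~90% confluence at the end.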
Background: ATP-based viability assays read luminescence as a measure of living cells.

The structures appear in SMILES notation.

Consider `CN(C)C(=O)CNCc1cc(/C=N\C2CC2)ccn1` [Compound 33], for which the IC50 (commonly the concentration at which inhibition is half-maximal) in assay [1] was 250 to 2500 nM; in assay [2], > 2500 nM; in assay [3], > 2500 nM.

Take `CCCCCCCC/N=C/c1ccnc(CNCC(=O)N(CC)CC)c1` [Compound 58, N,N-diethyl-2-[({4-[(octylimino)methyl]-pyridin-2-yl}methyl)amino]-acetamide]: the IC50 in assay [1], in assay [2] and in assay [3] was > 2500 nM each time. The concentration giving a half-maximal response (EC50) (commonly the concentration that produces a half-maximal response) in assay [4] is > 2500 nM.

In the case of `CCN(CC)CCCCNCc1cc(CNC(=O)C(F)(F)F)ccn1` [Compound 1, N-{[2-({[4-(diethylamino)butyl]-amino}methyl)pyridin-4-yl]methyl}-2,2,2-trifluoroacetamide], the results for the half-maximal inhibitory concentration (IC50) in assay [1], in assay [2] and in assay [3] were < 250 nM, > 2500 nM and < 250 nM, respectively. In addition, the EC50 in assay [4] was < 250 nM.

Take `CN(C)CCCNCc1cc(/C=N/CCN(C)C)ccn1` [Compound 38, ({4-[{[2-(dimethylamino)ethyl]-imino}methyl]pyridin-2-yl}methyl)[3-(dimethylamino)-propyl]amine]: the half-maximal inhibitory concentration (IC50) in assay [1] was < 250 nM; in assay [2] it was > 2500 nM; in assay [3] it was > 2500 nM. The EC50 in assay [4] was < 250 nM.

As to `NCc1ccnc(CNCCCCN2CCC2)c1` [Compound 7, [2-({[4-(azetidin-1-yl)butyl]amino}methyl)-pyridin-4-yl]-methanamine], the 50% inhibitory concentration (IC50) in assay [1] is < 250 nM; in assay [2], > 2500 nM; in assay [3], < 250 nM. Also, the EC50 in assay [4] is 250 to 2500 nM.

For the compound `CN1CCCC1CCNCc1cc(/C=N/C2CC2)ccn1` (stereo not drawn) [Compound 40, N-{[2-({[2-(l-methylpyrrolidin-2-yl)ethyl]amino}methyl)-pyridin-4-yl]methylidene}-cyclopropanamine], the values for the concentration for half-maximal inhibition (IC50) in assay [1], in assay [2] and in assay [3] were < 250 nM, > 2500 nM and 250 to 2500 nM, respectively. For the same compound, the EC50 in assay [4] lay within 250 to 2500 nM.

As for `CCN(CC)CCCCNCc1cc(/C=N\CCC2CCCCC2)ccn1` [Compound 67, (2-cyclohexylethyl)-({[2-({[4-(diethylamino)-butyl]amino}methyl)pyridin-4-yl]methylidene})-amine], the IC50 in assay [1] is < 250 nM; in assay [2], > 2500 nM; in assay [3] it was > 2500 nM. Besides, in assay [4], the EC50 is < 250 nM.

With `N#CCNCc1ccnc(CNCCCCN(Cc2ccccc2)C2CC2)c1` [Compound 23, 2-[({2-[({4-[benzyl(cyclopropyl)-amino]butyl}amino)-methyl]pyridin-4-yl}methyl)amino]-acetonitrile], the half-maximal inhibitory concentration (IC50) was < 250 nM in assay [1], > 2500 nM in assay [2] and > 2500 nM in assay [3].

For the compound `CNC(C#N)c1ccnc(CNCCCN(C)C)c1` (stereo not drawn) [Compound 24, 2-[2-({[3-(dimethylamino)propyl]-amino}methyl)pyridin-4-yl]-2-(methylamino)-acetonitrile], the IC50 was < 250 nM in assay [1], > 2500 nM in assay [2] and < 250 nM in assay [3].

Turning to `CCN(CC)CCCCNCc1cc(/C=N/CCO)ccn1` [Compound 61, 2-[{[2-({[4-(diethylamino)-butyl]amino}-methyl)pyridin-4-yl]methylidene}-amino]ethan-1-ol], the IC50 is < 250 nM in assay [1], > 2500 nM in assay [2] and < 250 nM in assay [3]. In assay [4], the half-maximal effective concentration (EC50) is < 250 nM.

With `CN(C)C(=O)CNCc1cc(/C=N/CCC2CCCCC2)ccn1` [Compound 36, 2-[({4-[[(2-cyclohexylethyl)imino]-methyl]pyridin-2-yl}methyl)amino]-N,N-dimethylacetamide], the IC50 in assay [1] was < 250 nM; in assay [2], > 2500 nM; in assay [3] it was < 250 nM. In assay [4], this compound showed an EC50 of 250 to 2500 nM.

As to `CN(C)CCCNCc1cc(CN)ccn1` [Compound 3, [2-({[3-(dimethylamino)propyl]-amino}methyl)pyridin-4-yl]methanamine], the IC50 in assay [1] is < 250 nM; in assay [2], > 2500 nM; in assay [3], < 250 nM. For the same compound, the 50% effective concentration (EC50) in assay [4] is < 250 nM.

Consider `CCN(CC)CCCCN(Cc1cc(CNC(=O)C(F)(F)F)ccn1)C(=O)C(F)(F)F` [Compound 6, N-[4-(diethylamino)butyl]-- 2,2,2-trifluoro-N-({4-[(trifluoroacetamido)-methyl]pyridin-2-yl}methyl)acetamide], for which the IC50 in assay [1] was < 250 nM; in assay [2], > 2500 nM; in assay [3], < 250 nM. Also, in assay [4], the EC50 was < 250 nM.

As for `CN(C)C(=O)CNCc1cc(CNCC#N)ccn1` [Compound 13, 2-{[(4-{[(cyanomethyl)amino]-methyl}pyridin-2-yl)methyl]amino}-N,N-dimethylacetamide], the 50% inhibitory concentration (IC50) in assay [1] is 250 to 2500 nM; in assay [2] it was > 2500 nM; in assay [3], > 2500 nM.

Consider `CCN(CC)CCCCNCc1cc(C=O)ccn1` [Compound 107, 2-({[4-(diethylamino)-butyl]amino}-methyl)pyridine-4-carbaldehyde], for which the half-inhibitory concentration (IC50) in assay [1] was < 250 nM; in assay [2], > 2500 nM; in assay [3], < 250 nM. Besides, in assay [4], the concentration for a half-maximal effect (EC50) was < 250 nM.

For `CCN(CC)CCCCNCc1cc(/C=N/CC(F)(F)C(F)(F)F)ccn1` [Compound 62, {[2-({[4-(diethylamino)-butyl]amino}methyl)pyridin-4-yl]methylidene} (2,2,3,3,3-pentafluoropropyl)-amine], the 50% inhibitory concentration (IC50) in assay [1] is < 250 nM; in assay [2], > 2500 nM; in assay [3] it was 250 to 2500 nM. Besides, the EC50 in assay [4] was < 250 nM.

In the case of `CC(C#N)NCc1ccnc(CNCCCN(C)C)c1` (stereo not drawn) [Compound 22, 2-({[2-({[3-(dimethylamino)propyl]-amino}methyl)pyridin-4-yl]methyl}amino)-propanenitrile], the values for the IC50 in assay [1], in assay [2] and in assay [3] were < 250 nM, > 2500 nM and 250 to 2500 nM, respectively. Further, the half-maximal effective concentration (EC50) in assay [4] is < 250 nM.

In the case of `O=Cc1ccnc(CNCCCN2CCCC2)c1` [Compound 111, 2-({[3-(pyrrolidin-1-yl)propyl]amino}-methyl)pyridine-4-carbaldehyde], the values for the IC50 in assay [1], in assay [2] and in assay [3] were < 250 nM, > 2500 nM and 250 to 2500 nM, respectively. In assay [4], the half-maximal effective concentration (EC50) was < 250 nM.

Consider `CCN(CCN(C)C)C(=O)CNCc1cc(CNC(=O)C(F)(F)F)ccn1` [Compound 25, N-[(2-{[({[2-(dimethylamino)ethyl]-(ethyl)carbamoyl}-methyl)amino]methyl}-pyrtdin-4-yl)methyl]-2,2,2-trifluoroacetamide], for which the IC50 was < 250 nM in assay [1], > 2500 nM in assay [2] and > 2500 nM in assay [3]. In addition, in assay [4], the EC50 was < 250 nM.

In the case of `C(=N\C1CC1)/c1ccnc(CNCCCCN2CCC2)c1` [Compound 44, N-{[2-({[4-(azetidin-1-yl)butyl]amino}methyl)-pyridin-4-yl]methylidene}-cyclopropanamine], the half-maximal inhibitory concentration (IC50) was < 250 nM in assay [1], > 2500 nM in assay [2] and > 2500 nM in assay [3]. Moreover, in assay [4], the EC50 is < 250 nM.

Regarding `COc1ccccc1CN1CCC(NC(=O)CNCc2cc(CN)ccn2)CC1` [Compound 9, 2-({[4-(aminomethyl)pyridin-2-yl]methyl}amino)-N-{1-[(2-methoxyphenyl)methyl]-piperidin-4-yl}acetamide], the 50% inhibitory concentration (IC50) in assay [1] is 250 to 2500 nM; in assay [2], > 2500 nM; in assay [3], > 2500 nM. Besides, in assay [4], the EC50 is > 2500 nM.

On to `CN(C)C/C=C/CNCc1cc(/C=N/C2CC2)ccn1` [Compound 43, N-{[2-({[(2E)-4-(dimethylamino)but-2-en-1-yl]amino}-methyl)pyridin-4-yl]methylidene}-cyclopropanamine], for which the concentration for half-maximal inhibition (IC50) in assay [1] is < 250 nM; in assay [2], > 2500 nM; in assay [3], < 250 nM. In assay [4], the EC50 was < 250 nM.

Take `CN1CCC(CNCc2cc(C=O)ccn2)CC1` [Compound 100, 2-({[(1-methyl-piperidin-4-yl)methyl]amino}-methyl)pyridine-4-carbaldehyde]: the concentration for half-maximal inhibition (IC50) in assay [1] was < 250 nM; in assay [2], > 2500 nM. Also, the EC50 in assay [4] is < 250 nM.
